Broadly, the solubility is how much of the substance goes into solution per volume.

This is an account of results in patent US9732226B2, “Azo compound, ink containing azo compound, and display and electronic paper containing the ink” (MITSUBISHI CHEMICAL CORPORATION, priority 2012, dated 2017).

What all share (assay type): physicochemical
A short description of data set [1]: Absorption spectrum of n-decane solution (absorption maximum wavelength, molar absorbance coefficient, color). Particulars: for ε / λmax / ε (molar absorbance coefficient): n-decane solution; for ε / λmax: same manner as for Example Compound 1; for Maximum Absorption Wavelength: 1 mg in 100 ml n-decane, quartz cell; for Color Tone: color of the solution of the compound in n-decane; for ε (molar absorbance coefficient): at absorption maximum wavelength. How it is done: <Method for Measurement of Absorption Maximum Wavelength λMax, Molar Absorbance Coefficient ε>
One mg of each of Example Compounds 1 to 4 and Comparative Example Compound was dissolved in 100 ml of n-decane solution to prepare a solution thereof, and using a quartz cell, the absorption spectrum thereof was measured with Hitachi Spectrophotometer U-4100. The resultant spectrum of the compound gave the absorption maximum wavelength λmax (nm) and the molar absorbance coefficient ε(L·mol^−1·cm^−1) thereof.

Data set [2] is described as follows: Solubility C in n-decane at 5° C. (saturated solution, absorbance). The following applies: for εC / ε · C: product of ε and solubility C in n-decane at 5° C.; for C: solubility in n-decane at 5° C.; for solubility at 24 h: organic solvent or mixture, thermodynamic from solid, saturation solubility in n-decane at 5° C. As to the method:
<Method for Measurement of Solubility C>
The solubility C of Example Compounds 1 to 4 and Comparative Example Compound in n-decane solution was measured as follows.
The compound was added to the solvent until the undissolved residue remained, and ultrasonically treated at 30° C. for 30 minutes. After left at 5° C. for 24 hours, this was centrifuged and filtered through a 0.1 μm-filter using an ultracompact centrifuge (centrifugal force, 5200×g). The resultant saturated solution was diluted to have a suitable concentration, and using a quartz cell having an optical length of 10 mm, the absorption spectrum thereof was measured with Hitachi Spectrophotometer U-4100. From the relationship between the absorbance at the absorption maximum wavelength λmax (nm) and the previously-determined molar absorbance coefficient ε([…]) thereof, the concentration of each compound was determined, and the solubility C (mol·L^−1) at 5° C. and εC (cm^−1) thereof were calculated.

Data set [3] in a line: Relative permittivity of solvent. The following applies: 22° C., measurement frequency 1 kHz. As to the method:
(§1) <Method for Measurement of Relative Permittivity of Solvent> The solvent was sandwiched between opposed parallel-plate ITO electrode-attached glass substrates having an electrode spacing of 50 μm, and using LCR Meter ZN2371 (manufactured by NF Corporation), the equivalent parallel capacitance thereof was measured at a measurement temperature of 22° C. and at a frequency of 1 kHz, given a test signal voltage of 5 V. Through calculation according to the following equation, the relative permittivity of the solvent was determined. Relative Permittivity=(equivalent parallel capacitance)×(electrode spacing)/(electrode area)/vacuum permittivity(ε0) <Method for Measurement of Solubility of Solvent in Water>

Data set [4] is described as follows: Solubility of solvent in water. The following applies: pure water, thermodynamic from solid, 25° C. As to the method:
as §1, with “The” for “<Method for Measurement of Relative Permittivity of Solvent> The”
30 g of pure water and 8 g of the solvent were put into a 110 ml-vial, and shaken in a thermostat bath at 25° C. at 200 shake/min for 4 hours. After thus shaken, the liquid was centrifuged (6000×g, 5 minutes), the aqueous layer was sampled, and the concentration of the dissolved solvent was quantified through gas chromatography.
For a mixed solvent comprising two or more different types of solvents, the solubility in water was determined by multiplying the solubility in water of each solvent constituting the mixed solvent by the molar fraction of each solvent, followed by totaling the resultant data. […]

Molecules are shown by their SMILES. ≈ marks a conversion by molar mass, not a printed value.

In data set [1], `CCCCc1nn(C(C)(C)C)c(O)c1N=Nc1ccc(N=Nc2ccccc2)cc1` [Yellow Compound A, reference compound] had a ε of 25000 L/mol/cm and a λmax of 417 nm. In data set [2], this compound gave a εC of 1900 cm⁻¹ and a C of 0.076 mol/L.

As for `CCCCCCCCCC` [n-decane], the relative permittivity in data set [3] was 2.0. For the same compound, the solubility at 4 h in data set [4] was at most 1 µg/mL.

For `CCCCC(CC)CNc1ccc(NCC(CC)CCCC)c2c1C(=O)c1ccc(C(=O)OCC(C)C)cc1C2=O` (stereo not drawn) [Blue Compound A, reference compound], in data set [1], the ε was determined as 19000 L/mol/cm and the λmax was 668 nm. Besides, in data set [2], the εC stood at 3200 cm⁻¹ and the C came to 0.170 mol/L.

In data set [1], `CCCCC(CC)CN(CC(CC)CCCC)c1ccc(N=Nc2snc(CC)c2C#N)c(C)c1` (stereo not drawn) [Red Compound A] registered a ε of 4600 L/mol/cm and a λmax of 530 nm. Further, in data set [2], the εC stood at 3900 cm⁻¹ and the C was found to be 0.086 mol/L.

In the case of `CCCCC(=O)Nc1cc(N(CC(CC)CCCC)CC(CC)CCCC)ccc1N=Nc1c(C#N)cc(C(F)(F)F)cc1C#N` (stereo not drawn) [Example Compound 3], in data set [1], the “Maximum Absorption Wavelength” value came to 585 nm, the “Color Tone” value is “violet” and the “ε (molar absorbance coefficient)” value is given as 75,000 L · mol^−1 · cm^−1. In data set [2], the solubility at 24 h amounted to 350 mM (≈ 224 mg/mL) and the “ε · C” value was 26,000 cm^−1.

`CCCCC(CC)COC(=O)c1cc(C#N)c(N=Nc2ccc(N(CC(CC)CCCC)CC(CC)CCCC)cc2NC(=O)CC)c(C#N)c1` (stereo not drawn) [Example Compound 2]: in data set [1], the “Maximum Absorption Wavelength” value was 591 nm, the “Color Tone” value was “violet” and the “ε (molar absorbance coefficient)” value is given as 80,000 L · mol^−1 · cm^−1. Moreover, in data set [2], the solubility at 24 h was found to be 160 mM (≈ 112 mg/mL) and the “ε · C” value was 13,000 cm^−1.

For the compound `C=CCn1c(N=Nc2ccc(N(CCC)CCC)cc2NC(C)=O)nc(C#N)c1C#N` [Comparative Example Compound, reference compound], in data set [1], the “Maximum Absorption Wavelength” value is 512 nm, the “Color Tone” value is recorded as “red” and the “ε (molar absorbance coefficient)” value was 34,000 L · mol^−1 · cm^−1. For the same compound, in data set [2], the solubility at 24 h is at most 0.01 mM and the “ε · C” value was 10 or less cm^−1.

In the case of `CCCCC(CC)COC(=O)c1cc(C#N)c(N=Nc2ccc(N(CC(CC)CCCC)CC(CC)CCCC)cc2NC(C)=O)c(C#N)c1` (stereo not drawn) [Example Compound 4], in data set [1], the “Maximum Absorption Wavelength” value was 590 nm, the “Color Tone” value is listed as “violet” and the “ε (molar absorbance coefficient)” value is 80,000 L · mol^−1 · cm^−1. Also, in data set [2], the solubility at 24 h was determined as 75 mM (≈ 51.4 mg/mL) and the “ε · C” value is reported as 6,000 cm^−1.

Take `CCCCC(CC)CN(CC(CC)CCCC)c1ccc(N=Nc2c(C#N)cc(C(F)(F)F)cc2C#N)c(NC(C)=O)c1` (stereo not drawn) [Example Compound 1]: in data set [1], the “Maximum Absorption Wavelength” value was found to be 584 nm, the “Color Tone” value is listed as “violet” and the “ε (molar absorbance coefficient)” value is recorded as 80,000 L · mol^−1 · cm^−1. For the same compound, in data set [2], the solubility at 24 h is 20 mM (≈ 11.9 mg/mL) and the “ε · C” value is on record as 1,600 cm^−1.
